Data on eight molecules can be found in patent US11957695B2, “Methods and compositions targeting glucocorticoid signaling for modulating immune responses” (The Broad Institute, Inc., priority 2018, dated 2024).

Values joined by “and” are separate entries in the source; they are usually repeats but may differ in a detail not shown here. Equal entries are not always repeated.

For series [1], the target named is T1, glucocorticoid receptor (GR) (Homo sapiens, UniProt P04150).
T1 sequence (P04150 1-777): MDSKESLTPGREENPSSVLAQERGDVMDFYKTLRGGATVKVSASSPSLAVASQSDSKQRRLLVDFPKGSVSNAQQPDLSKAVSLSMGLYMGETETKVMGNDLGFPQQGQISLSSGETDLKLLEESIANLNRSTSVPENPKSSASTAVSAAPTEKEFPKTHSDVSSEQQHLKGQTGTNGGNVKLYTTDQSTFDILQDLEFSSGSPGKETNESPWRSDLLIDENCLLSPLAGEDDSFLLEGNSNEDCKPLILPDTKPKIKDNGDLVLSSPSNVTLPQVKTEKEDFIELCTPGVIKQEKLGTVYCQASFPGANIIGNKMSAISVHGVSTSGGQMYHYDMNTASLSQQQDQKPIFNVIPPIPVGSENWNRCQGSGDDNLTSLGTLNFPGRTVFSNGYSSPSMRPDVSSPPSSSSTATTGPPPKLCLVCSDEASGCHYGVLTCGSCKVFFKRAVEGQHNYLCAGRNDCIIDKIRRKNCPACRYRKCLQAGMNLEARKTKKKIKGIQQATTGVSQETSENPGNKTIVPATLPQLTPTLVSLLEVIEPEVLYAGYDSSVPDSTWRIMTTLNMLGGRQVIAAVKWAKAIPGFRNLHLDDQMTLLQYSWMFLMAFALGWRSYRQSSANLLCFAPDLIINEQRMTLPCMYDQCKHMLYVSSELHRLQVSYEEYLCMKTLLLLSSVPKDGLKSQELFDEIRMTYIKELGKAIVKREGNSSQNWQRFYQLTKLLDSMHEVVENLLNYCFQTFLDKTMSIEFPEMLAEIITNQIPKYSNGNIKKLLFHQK
The following applies: cited from earlier work.

The conditions of series [2]: in vivo; cited from earlier work.
Series [3] relates to Naïve CD8+ T cells. The experiment in a line: Quantitative RT-PCR of Prdm1, Nfil3 and Tcf7 in Ctrl, GC, IL-27 or GC+IL-27 treated cells. The class given is cell-based, mouse. The method, then: (§1) Cell culture and treatment with glucocorticoid. CD8^+ T cells from splenocytes and lymph nodes were isolated using CD8 microbeads (Miltenyi). Cells were further stained with antibodies against CD8, CD62L and CD44, and CD8^+CD62L^hiCD44^lo naive cells were sorted by BD FacsAria (BD Biosciences). Sorted cells were cultured for 9 days as described below in DMEM supplemented with 10% (vol/vol) FCS, […], 1 mM sodium pyruvate, nonessential amino acids, L-glutamine, and 100 U/ml penicillin and 100 µg/ml streptomycin.
Quantitative PCR. Total RNA was extracted using RNeasy columns (Qiagen). Reverse transcription of mRNA was performed in a thermal cycler (Bio-Rad) using iScript cDNA Synthesis Kit (Bio-Rad). qPCR was performed in the Vii7 Real-Time PCR system (Applied Biosystems) using the primers for Taqman gene expression (Applied Biosystems). Data were normalized to the expression of Actb.

The test system of series [4] is Naïve CD8+ T cells. The experiment in a line: RNA-Seq of naïve CD8+ T cells cultured with anti CD3/28 in the presence of Dex (GC), IL-27 or GC+IL-27 (Tables 1, 2A, 2B, 5-7). The class given is cell-based, mouse. The method, then:
as §1
RNA-Seq data pre-processing. […] Heatmap figures were generated using pheatmap package^53.
Analysis of additive and non-additive effects. To test whether the glucocorticoid and IL-27 signaling pathways had additive or non-additive effects on gene expression, Applicants stimulated naïve CD8^+ T cells in the presence of Dex, IL-27, or Dex+IL-27 in vitro. Applicants tested for non-additive effects between IL-27 and glucocorticoid signaling using a negative binomial generalized linear model in order to account for both estimations of the mean and the dispersion across conditions, where dispersion describes the relationship between the mean and variance. The model was applied to the expression data using ANOVA between a model that takes into account the interaction between IL27 and Dex versus no interaction.

On to `C[C@]12CCC(=O)C=C1CC[C@@H]1[C@@H]2[C@@H](O)C[C@@]2(C)[C@H]1CC[C@]2(O)C(=O)CO` [Cortisol (hydrocortisone), Cortisol], for which the Glucocorticoid potency in series [1] is listed as 1.

Turning to `C[C@H]1C[C@@H]2[C@H]([C@@H](O)C[C@@]3(C)[C@H]2CC[C@]3(O)C(=O)CO)[C@@]2(C)C=CC(=O)C=C12` [Methylprednisolone], in series [2], the “Terminal half-life” value is 18 to 40 h.

Take `C[C@]12C=CC(=O)C=C1CC[C@@H]1[C@@H]2[C@@H](O)C[C@@]2(C)[C@H]1CC[C@]2(O)C(=O)CO` [Prednisolone]: the “Terminal half-life” value in series [2] was 16 to 36 h. Further, in series [1], the Glucocorticoid potency is on record as 4.

Regarding `C[C@]12C=CC(=O)C=C1CC[C@H]1[C@@H]3C[C@@H](O)[C@](O)(C(=O)CO)[C@@]3(C)C[C@H](O)[C@@]12F` [Triamcinolone], the “Terminal half-life” value in series [2] is 12 to 36 h. Also, in series [1], the Glucocorticoid potency is 5.

In the case of `C[C@]12CCC(=O)C=C1CC[C@@H]1[C@@H]2C(=O)C[C@@]2(C)[C@H]1CC[C@]2(O)C(=O)CO` [Cortisone], the Glucocorticoid potency in series [1] is recorded as 0.8.

On to `C[C@]12C=CC(=O)C=C1CC[C@@H]1[C@@H]2C(=O)C[C@@]2(C)[C@H]1CC[C@]2(O)C(=O)CO` [Prednisone], for which the “Terminal half-life” value in series [2] was 16 to 36 h.

As for `CC(=O)OCC(=O)[C@H]1CC[C@H]2[C@@H]3CCC4=CC(=O)CC[C@]4(C)[C@H]3CC[C@]12C` [Deoxycorticosterone acetate], the Glucocorticoid potency in series [1] is recorded as 0.

B1: IL-27: heterodimeric cytokine and a member of the IL-12 family of cytokines that is produced by antigen presenting cells (protein, UniProt Q8NEV9 29-243; Q14213 21-229, looked up)
Interleukin-27 subunit alpha: FPRPPGRPQLSLQELRREFTVSLHLARKLLSEVRGQAHRFAESHLPGVNLYLLPLGEQLPDVSLTFQAWRRLSDPERLCFISTTLQPFHALLGGLGTQGRWTNMERMQLWAMRLDLRDLQRHLRFQVLAAGFNLPEEEEEEEEEEEEERKGLLPGALGSALQGPAQVSWPQLLSTYRLLHSLELVLSRAVRELLLLSKAGHSVWPLGFPTLSPQP
Interleukin-27 subunit beta: RKGPPAALTLPRVQCRASRYPIAVDCSWTLPPAPNSTSPVSFIATYRLGMAARGHSWPCLQQTPTSTSCTITDVQLFSMAPYVLNVTAVHPWGSSSSFVPFITEHIIKPDPPEGVRLSPLAERQLQVQWEPPGSWPFPEIFSLKYWIRYKRQGAARFHRVGPIEATSFILRAVRPRARYYVQVAAQDLTDYGELSDWSLPATATMSLGK
As to B1, the “Tcf7 expression (qPCR)” value in the series on Naïve CD8+ T cells [3] is recorded as “dramatically reduced”. In addition, the “transcriptional state of stimulated CD8+ T cells” value with Naïve CD8+ T cells [4] (FIG. 12) is “transcriptionally distinct”. Besides, in the series on Naïve CD8+ T cells [4] (three values per treatment, control cells 9.93, 8.28, 11.45), the Tcf7 expression levels is 5.37 and 7.39 and 5.57. In the series on Naïve CD8+ T cells [4] (three values per treatment, control cells 12.77, 13.57, 13.47), the Nupr1 expression levels is 11.93 and 21.86 and 19.79. In addition, the CD28 expression levels in the series on Naïve CD8+ T cells [4] (three values per treatment, control cells 19.54, 18.14, 18.29) was 48.93 and 37.2 and 39.84. Further, the Lilrb4 expression levels in the series on Naïve CD8+ T cells [4] (three values per treatment, control cells 87.12, 92.82, 96.51) is 73.62 and 94.25 and 105.87.
